# In patent US20130165440A1, “JAK1 Inhibitors” (EXELIXIS, INC., priority 2010, published 2013):
# Molecular target: T1, recombinant JAK1 enzyme (Homo sapiens, UniProt P23458)
# T1 construct: 8 nM of recombinant JAK1 enzyme (Insect expressed: V866-K1155); host or cells: insect cells
# Experiment: JAK1 Kinase Assay (luciferase-luciferin-coupled chemiluminescence, ATP consumption)
# Format: biochemical
# Conditions: 8 nM JAK1 (V866-K1155), 30 μM IRS-1 peptide (Y608), 2 μM ATP, 2 hours ambient temperature, KinaseGlo; read-out: JAK1 IRS-1tide Chemilum (IC50)
# Experimental: JAK1 Kinase Assay Used to Test Compounds
# JAK1 Kinase activity was measured as the percent of ATP consumed following the kinase reaction using luciferase-luciferin-coupled chemiluminescence. The reaction was conducted in white medium binding 384-well microtiter plates. The kinase reaction were initiated by combining test compounds, 8 nM of recombinant JAK1 enzyme (Insect expressed: V866-K1155), 30 μM of IRS-1 peptide (Y608) and 2 μM ATP in buffer containing 20 mM Hepes (pH 7.5), 10 mM MgCl2, 0.01% Brij, 5% glycerol and 1 mM DTT in a 20 μL volume. The reaction mixture was incubated at ambient temperature for 2 hours. Following the kinase reaction, a 20 μL aliquot of KinaseGlo was added to stop the reaction and measure remaining ATP via detection of chemiluminescence using the Envison reader. Total ATP consumption was limited to 25-60%.
# T1 sequence (P23458 865-1154 limits assumed): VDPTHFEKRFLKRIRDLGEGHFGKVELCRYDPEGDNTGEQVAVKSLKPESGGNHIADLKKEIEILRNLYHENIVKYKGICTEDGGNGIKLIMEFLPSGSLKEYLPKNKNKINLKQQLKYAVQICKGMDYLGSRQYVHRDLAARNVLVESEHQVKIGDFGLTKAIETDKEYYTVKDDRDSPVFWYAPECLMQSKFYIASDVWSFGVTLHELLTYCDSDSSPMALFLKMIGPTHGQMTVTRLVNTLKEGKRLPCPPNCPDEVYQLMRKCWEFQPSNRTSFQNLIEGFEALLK
row,Compound,IC50
1,"COC(=O)c1ccc(-c2nnc(Nc3cccc(C(C)C)c3)c3cnccc23)cc1 [Compound 57, methyl 4-(4-{[3-(1-methylethyl)phenyl]amino}pyrido[3,4-d]pyridazin-1-yl)benzoate]",500 to 1000 nM
2,"NC(=O)c1ccc(-c2nnc(Nc3cc(C(F)(F)F)cc(C(F)(F)F)c3)c3ccccc23)cc1 [Compound 9, 4-(4-{[3,5-bis(trifluoromethyl)phenyl]amino}phthalazin-1-yl)benzamide]",1000 to 2000 nM
3,"COC(=O)c1ccc(-c2nnc(Nc3cc(Cl)cc(C(F)(F)F)c3)c3ccccc23)cc1 [Compound 14, methyl 4-(4-{[3-chloro-5-(trifluoromethyl)phenyl]amino}phthalazin-1-yl)benzoate]",≤ 150 nM
4,"COC(=O)c1ccc(-c2nnc(Nc3cc(OC)cc(C(F)(F)F)c3)c3ccccc23)cc1 [Compound 32, methyl 4-(4-{[3-(methyloxy)-5-(trifluoromethyl)phenyl]amino}phthalazin-1-yl)benzoate]",500 to 1000 nM
5,"COC(=O)c1ccc(-c2nnc(Nc3cccc(N(C)C)c3)c3ccccc23)cc1 [Compound 63, methyl 4-(4-{[3-(dimethylamino)phenyl]amino}phthalazin-1-yl)benzoate]",2000 to 30000 nM
6,"COC(=O)c1ccc(-c2nnc(Nc3cc(C(F)(F)F)cc(C(F)(F)F)c3)c3ccccc23)c(C)c1 [Compound 64, methyl 4-(4-{[3,5-bis(trifluoromethyl)phenyl]amino}phthalazin-1-yl)-3-methylbenzoate]",500 to 1000 nM
7,"COC(=O)c1ccc(-c2nnc(Nc3cc(C)cc(C(F)(F)F)c3)c3ccccc23)cc1 [Compound 65, methyl 4-(4-{[3-methyl-5-(trifluoromethyl)phenyl]amino}phthalazin-1-yl)benzoate]",≤ 150 nM
8,"COC(=O)c1ccc(-c2nnc(Nc3cccc(C(F)(F)F)c3)c3cnccc23)cc1 [Compound 29, methyl 4-(4-{[3-(trifluoromethyl)phenyl]amino}pyrido[3,4-d]pyridazin-1-yl)benzoate]",150 to 500 nM
9,"COC(=O)c1ccc(-c2nnc(Nc3cc(CCCN(C)C)cc(C(F)(F)F)c3)c3ccccc23)cc1 [Compound 22, methyl 4-[4-({3-[3-(dimethylamino)propyl]-5-(trifluoromethyl)phenyl}amino)phthalazin-1-yl]benzoate]",≤ 150 nM
10,"COC(=O)c1ccc(-c2nnc(Nc3cccc(Br)c3)c3ccccc23)cc1 [Compound 51, methyl 4-{4-[(3-bromophenyl)amino]phthalazin-1-yl}benzoate]",150 to 500 nM
11,"COC(=O)c1ccc(-c2nnc(Nc3cc(Br)cc(C(F)(F)F)c3)c3ccccc23)cc1 [Compound 44, methyl 4(4-{[3-bromo-5-(trifluoromethyl)phenyl]amino}phthalazin-1-yl)benzoate]",150 to 500 nM
12,"COC(=O)c1ccc(-c2nnc(Nc3cc(NCCN(C)C)cc(C(F)(F)F)c3)c3ccccc23)cc1 [Compound 36, methyl 4-(4-{[3-{[2-(dimethylamino)ethyl]amino}-5-(trifluoromethyl)phenyl]amino}phthalazin-1-yl)benzoate]",150 to 500 nM
13,"COC(=O)c1ccc(-c2nnc(Nc3cc(C(=O)OC)cc(C(F)(F)F)c3)c3ccccc23)cc1 [Compound 15, methyl 3-[(4-{4-[(methyloxy)carbonyl]phenyl}phthalazin-1-yl)amino]-5-(trifluoromethyl)benzoate]",2000 to 30000 nM
14,COC(=O)c1ccc(-c2nnc(Nc3cccc(C)c3)c3ccccc23)cc1 [Compound 47],500 to 1000 nM
15,"COC(=O)c1ccc(-c2nnc(Nc3cccc(C(C)C)c3)c3ccccc23)cc1 [Compound 62, methyl 4-(4-{[3-(1-methylethyl)phenyl]amino}phthalazin-1-yl)benzoate]",150 to 500 nM
16,"COC(=O)c1ccc(-c2nnc(Nc3cc(N4CCN(C)CC4)cc(C(F)(F)F)c3)c3ccccc23)cc1 [Compound 20, methyl 4-(4-{[3-(4-methylpiperazin-1-yl)-5-(trifluoromethyl)phenyl]amino}phthalazin-1-yl)benzoate]",1000 to 2000 nM
17,"CC(=O)c1ccc(-c2nnc(Nc3cc(C(F)(F)F)cc(C(F)(F)F)c3)c3ccccc23)s1 [Compound 12, 1-[5-(4-{[3,5-bis(trifluoromethyl)phenyl]amino}phthalazin-1-yl)-2-thienyl]ethanone]",2000 to 30000 nM

# The remaining lines, values ahead:
row,IC50,Compound
1,150 to 500 nM,"COC(=O)c1ccc(-c2nnc(Nc3cccc(Cl)c3)c3ccccc23)cc1 [Compound 16, methyl 4-{4-[(3-chlorophenyl)amino]phthalazin-1-yl}benzoate]"
2,150 to 500 nM,"CCc1cccc(Nc2nnc(-c3ccc(C(=O)OC)cc3)c3ccccc23)c1 [Compound 21, methyl 4-{4-[(3-ethylphenyl)amino]phthalazin-1-yl}benzoate]"
3,150 to 500 nM,"COC(=O)c1ccc(-c2nnc(Nc3cc(C(F)(F)F)cc(C(F)(F)F)c3)c3ccccc23)cc1 [Compound 66, methyl 4-(4-{[3,5-bis(trifluoromethyl)phenyl]amino}phthalazin-1-yl)benzoate]"
4,500 to 1000 nM,"COC(=O)c1ccc(-c2nnc(Nc3cccc(C(C)(C)C)c3)c3ccccc23)cc1 [Compound 4, methyl 4-(4-{[3-(1,1-dimethylethyl)phenyl]amino}phthalazin-1-yl)benzoate]"
5,2000 to 30000 nM,"O=C(O)c1ccc(-c2nnc(Nc3cc(C(F)(F)F)cc(C(F)(F)F)c3)c3ccccc23)cc1 [Compound 40, 4-(4-{[3,5-bis(trifluoromethyl)phenyl]amino}phthalazin-1-yl)benzoic acid]"
6,500 to 1000 nM,"CC(=O)Nc1ccc(-c2nnc(Nc3cc(C(F)(F)F)cc(C(F)(F)F)c3)c3ccccc23)cc1 [Compound 28, N-[4-(4-{[3,5-bis(trifluoromethyl)phenyl]amino}phthalazin-1-yl)phenyl]acetamide]"
7,2000 to 30000 nM,"O=Cc1ccc(-c2nnc(Nc3cc(C(F)(F)F)cc(C(F)(F)F)c3)c3ccccc23)cc1 [Compound 18, 4-(4-{[3,5-bis(trifluoromethyl)phenyl]amino}phthalazin-1-yl)benzaldehyde]"
8,2000 to 30000 nM,"CNc1nnc(-c2ccc(-c3nnc(Nc4cc(C(F)(F)F)cc(C(F)(F)F)c4)c4ccccc34)cc2)s1 [Compound 1, N-[3,5-bis(trifluoromethyl)phenyl]-4-{4-[5-(methylamino)-1,3,4-thiadiazol-2-yl]phenyl}phthalazin-1-amine]"
9,150 to 500 nM,"COC(=O)c1ccc(-c2nnc(Nc3cc(OCCN(C)C)cc(C(F)(F)F)c3)c3ccccc23)cc1 [Compound 10, methyl 4-(4-{[3-{[2-(dimethylamino)ethyl]oxy}-5-(trifluoromethyl)phenyl]amino}phthalazin-1-yl)benzoate]"
